{"source": "paper PMC6017454", "about": "“A Xylenol Orange-Based Screening Assay for the Substrate Specificity of Flavin-Dependent para-Phenol Oxidases” (Molecules : A Journal of Synthetic Chemistry and Natural …, 2018)", "key": {"[1]": {"biological_target": "T1, His-VAO (vanillyl alcohol oxidase) (Penicillium simplicissimum, UniProt P56216)", "T1 construct": "gene VAOA; N-terminal 6xHis tag plus single Gly, tag kept; codon-optimised, E. coli BL21; covalent FAD; VAO predominantly octameric", "T1 sequence (P56216 whole entry)": "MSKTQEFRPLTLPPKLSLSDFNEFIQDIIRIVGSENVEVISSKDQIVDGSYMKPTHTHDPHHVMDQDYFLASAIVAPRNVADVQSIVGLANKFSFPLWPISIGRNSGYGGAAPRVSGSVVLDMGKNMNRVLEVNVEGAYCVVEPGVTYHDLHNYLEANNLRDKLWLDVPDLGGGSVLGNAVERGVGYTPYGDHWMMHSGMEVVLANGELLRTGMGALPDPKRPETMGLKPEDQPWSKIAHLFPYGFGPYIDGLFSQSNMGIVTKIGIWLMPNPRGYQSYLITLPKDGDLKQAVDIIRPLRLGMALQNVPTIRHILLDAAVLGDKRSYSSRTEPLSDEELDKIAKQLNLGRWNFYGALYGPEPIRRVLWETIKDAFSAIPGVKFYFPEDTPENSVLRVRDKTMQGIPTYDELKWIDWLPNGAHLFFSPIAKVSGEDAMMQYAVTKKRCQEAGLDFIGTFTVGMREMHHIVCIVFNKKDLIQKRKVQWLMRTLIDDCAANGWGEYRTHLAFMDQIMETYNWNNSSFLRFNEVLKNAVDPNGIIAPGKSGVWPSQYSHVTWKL", "assay": "flavin absorption spectrum; trichloroacetic acid precipitation", "format": "binding", "details": "covalent; co-purified"}, "[2]": {"biological_target": "T2, EUGO-His (eugenol oxidase) (Rhodococcus jostii, UniProt Q0SBK1)", "T2 construct": "gene RHA1_ro03282; E. coli TOP10; covalent FAD; EUGO dimeric", "T2 sequence (Q0SBK1 1-526)": "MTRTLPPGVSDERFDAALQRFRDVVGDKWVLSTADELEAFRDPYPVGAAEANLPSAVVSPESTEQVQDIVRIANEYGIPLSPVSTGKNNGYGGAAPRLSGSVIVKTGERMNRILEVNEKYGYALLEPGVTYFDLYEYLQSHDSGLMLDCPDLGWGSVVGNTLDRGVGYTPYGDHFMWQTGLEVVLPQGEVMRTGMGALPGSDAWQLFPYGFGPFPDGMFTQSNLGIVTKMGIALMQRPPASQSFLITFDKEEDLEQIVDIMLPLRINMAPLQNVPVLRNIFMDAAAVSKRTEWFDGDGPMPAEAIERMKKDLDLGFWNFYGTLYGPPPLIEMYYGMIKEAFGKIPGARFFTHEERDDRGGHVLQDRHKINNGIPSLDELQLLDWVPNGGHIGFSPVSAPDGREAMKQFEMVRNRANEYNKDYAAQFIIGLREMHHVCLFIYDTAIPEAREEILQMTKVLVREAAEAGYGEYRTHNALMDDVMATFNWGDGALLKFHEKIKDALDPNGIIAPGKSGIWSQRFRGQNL", "assay": "flavin absorption spectrum; trichloroacetic acid precipitation", "format": "binding", "details": "covalent; co-purified"}}}
{"smiles": "Cc1cc2nc3c(=O)[nH]c(=O)nc-3n(C[C@H](O)[C@H](O)[C@H](O)COP(=O)(O)OP(=O)(O)OC[C@H]3O[C@@H](n4cnc5c(N)ncnc54)[C@H](O)[C@@H]3O)c2cc1C", "note": "[FAD]", "values": [{"measurement": "flavin absorption spectrum; trichloroacetic acid precipitation", "setting": "[1]", "value": "demonstrating that the flavin cofactor is covalently bound to the protein"}, {"measurement": "flavin absorption spectrum; trichloroacetic acid precipitation", "setting": "[2]", "value": "demonstrating that the flavin cofactor is covalently bound to the protein"}]}
